Reference: article PMC12040169 (PLOS Biology, 2025)

Assay: in vitro
Conditions: human, hela cells, % viability

Going from `C=C(C)Cn1c(SCC(C)C)nnc1-c1ccc(O)nc1` [CBK200094] to `COCCCn1c(SCc2csc(-c3ccc(C)cc3)n2)n[nH]c1=O` [CBK295657], the viability at 28.5 h, 10 µM rises from 92.2% to 93.3%.

Going from `Oc1nc(CN2CCN(Cc3ccc4c(c3)OCO4)CC2)nc2ccccc12` [CBK074355] to `O=C(NCc1ccc(Cl)c(Cl)c1)N1CCN(Cc2ccccc2)CC1` [CBK155624], the viability at 28.5 h, 10 µM falls from 110% to 85.3%.

Going from `c1ccc(CCNC2CCCc3c2[nH]c2ccc(C4CCCCC4)cc32)cc1` (stereo not shown) [CBK261602C] to `Cc1ccc2[nH]c(=O)c(CN(Cc3ccccc3)C(=O)NC3CCCCC3)cc2c1` [CBK068704], the viability at 28.5 h, 10 µM falls from 90.7% to 84.5%.

First: Cn1cc(CN(Cc2ccccc2)CC2CCCO2)cn1 (stereo not shown) [CBK283233]
Second: COc1cccc(CN2CCC(Cc3ccccc3)CC2)c1 [CBK126436]
The viability at 28.5 h, 10 µM of the first is lower: 85.1% for the first, 103% for the second.

Compared with `O=C1N=C(NC2CCCCCC2)SC1C(=O)N1CCCCCC1` (stereo not shown) [CBK085513], `COc1csc(C(=O)Nc2ncn(CC(=O)N3CCCCCC3)n2)c1` [CBK304463] is lower in viability at 28.5 h, 10 µM: 93.1% for the first, 84.6% for the second.

Compared with `CC#Cc1cn([C@H]2C[C@@H](O)[C@@H](CO)O2)c(=O)nc1N` [CBK201257], `Cc1cn2c(nc1=O)OC[C@H]1O[C@@H]2C[C@H]1O` [CBK201280] is lower in viability at 28.5 h, 10 µM: 105% for the first, 93.5% for the second.

Compared with `O=C(O)CCCCCNc1ncnc2sc3c(c12)CCCC3` [CBK077446], `CCCNC(=O)Cn1nc(-c2cc3c(s2)CCC3)oc1=O` [CBK284713] is lower in viability at 28.5 h, 10 µM: 102% for the first, 95.2% for the second.

Going from `O=C(NCCNc1ccc([N+](=O)[O-])cc1Cl)c1ccccc1Cl` [CBK263541] to `O=C(Cc1ccccc1)Nc1ccccc1C(=O)NCc1cccnc1` [CBK269228], the viability at 28.5 h, 10 µM falls from 112% to 96.1%.

Compared with `O=C(Nc1cccnc1)c1cnc2cc(C(F)(F)F)ccc2c1O` [CBK107474], `Nc1ccc2ccc(-c3cccc(C(F)(F)F)c3)nc2n1` [CBK067629] is higher in viability at 28.5 h, 10 µM: 77.8% for the first, 97.5% for the second.

First: CC(C)(C)c1ccccc1[S+]([O-])c1cc2c(N3CCNCC3)nccc2s1 (stereo not shown) [CBK200018C]
Second: Cc1ccc(OCCCN2CCN(C)CC2)c(Cc2ccccc2)c1 [CBK269650C]
The viability at 28.5 h, 10 µM of the first is lower: 103% for the first, 104% for the second.

Compared with `O=C1CN(S(=O)(=O)c2ccc(NS(=O)(=O)c3ccc4ccccc4c3)cc2)CC(=O)N1` [CBK262513], `CS(=O)(=O)N(Cc1ccccc1)c1ccc(C(=O)Nc2ccc3c(c2)OCO3)cc1` [CBK033562] is lower in viability at 28.5 h, 10 µM: 95.4% for the first, 85.4% for the second.

Going from `Fc1ccc(COc2ccccc2CNCCN2CCOCC2)cc1` [CBK278150C] to `O=c1cc(N2CCOCC2)cnn1CCCCOc1ccccc1` [CBK307327], the viability at 28.5 h, 10 µM rises from 91.5% to 97.9%.

Compared with `CCn1cc(C(=O)N2CCc3sccc3C2)c(=O)c2ccc(C)nc21` [CBK305006], `O=C(Cn1cccc(C(=O)Nc2ccc(F)cc2)c1=O)Nc1nc2c(s1)CCCCC2` [CBK286055] is lower in viability at 28.5 h, 10 µM: 94.3% for the first, 84.7% for the second.

Going from `CCC(NC1CCc2nc(COC)nn2C1)c1ccccc1O` (stereo not shown) [CBK305132] to `COc1ccccc1-c1nccnc1OCCC(C)C` [CBK106818], the viability at 28.5 h, 10 µM rises from 92.1% to 109%.

First: Cn1nc(NC(=O)CC(C)(C)CC(=O)O)c2c(F)cccc21 [CBK057122]
Second: CC(=O)Nc1cccc(NC(=O)CCCC(=O)O)c1 [CBK261598]
The viability at 28.5 h, 10 µM of the first is lower: 86.3% for the first, 97.9% for the second.

First: CC(C)(C)c1cc(CCCOC(=O)CNC2CCCCC2)cc(C(C)(C)C)c1O [CBK261998]
Second: Cc1ccc(-n2ncc3c(=O)n(CC(=O)NC4CCCCC4)cnc32)cc1 [CBK287536]
The viability at 28.5 h, 10 µM of the first is higher: 89.4% for the first, 78.1% for the second.

First: O=C1Nc2ccc(-c3ccc(Cl)cc3)cc2C(=O)N2CCN(C(=O)c3cccnc3)C[C@H]12 [CBK289590]
Second: O=C(O)c1ccc2c(c1)C(=O)N(c1ccc(-c3nc(-c4ccccc4)c4ccccc4n3)cc1)C2=O [CBK263311]
The viability at 28.5 h, 10 µM of the first is higher: 107% for the first, 101% for the second.

Compared with `O=C(Nc1ccc(Cc2ccc(NC(=O)c3ccccc3F)c(O)c2)cc1O)c1ccccc1F` [CBK268366], `O=C(Nc1ccc(=O)n2c1[C@@H]1C[C@@H](CN(C(=O)Nc3ccc(F)cc3)C1)C2)c1ccccc1` [CBK288715] is lower in viability at 28.5 h, 10 µM: 90.4% for the first, 89.9% for the second.

Compared with `CSc1nsc(SCC(=O)N2CCN(C(c3ccccc3)c3ccccc3)CC2)n1` [CBK268071], `O=C(NCc1cccnc1)N1CCN(c2ccccc2)CC1` [CBK155178] is higher in viability at 28.5 h, 10 µM: 89.2% for the first, 98.2% for the second.

First: Cc1cc2c(cc1Cl)C(=O)CC1(CCN(C(=O)C3CC(=O)OC3(C)C)CC1)O2 (stereo not shown) [CBK156514]
Second: Cc1ccc2c(c1)C(NC(=O)C1CCN(S(C)(=O)=O)CC1)CC(C)(C)O2 (stereo not shown) [CBK307604]
The viability at 28.5 h, 10 µM of the first is lower: 94.8% for the first, 109% for the second.

Going from `O=C(O)c1ccc(CN2C(=O)c3ccc(C(=O)O)cc3C2=O)cc1` [CBK262823] to `O=C(CCCCCN1C(=O)c2ccccc2C1=O)Nc1cccc(C(=O)O)c1` [CBK287261], the viability at 28.5 h, 10 µM falls from 93.7% to 85.4%.

First: CCOc1ccc(NC(c2ccccc2)c2cc3cc(OC)ccc3[nH]c2=O)cc1 (stereo not shown) [CBK286157]
Second: CCCCCOc1ccc(Nc2ccc(-c3cc4ccccc4o3)cn2)cc1 [CBK036828]
The viability at 28.5 h, 10 µM of the first is lower: 81.7% for the first, 93.6% for the second.

Compared with `CN(C)CCN(C)C(=O)Cc1csc(-c2cccc(Cl)c2)n1` [CBK282176], `COc1ccc(Cl)cc1NC(=O)C(=O)NCc1ccccn1` [CBK263837] is lower in viability at 28.5 h, 10 µM: 111% for the first, 90.2% for the second.

First: Nc1nc2c(sc(=O)n2[C@@H]2O[C@H](CO)[C@H](O)C2O)c(=O)[nH]1 (stereo partly shown) [CBK201286]
Second: Cc1ccccc1CSCC(=O)Nc1c[nH]c(=O)[nH]c1=O [CBK269790]
The viability at 28.5 h, 10 µM of the first is higher: 96% for the first, 86.8% for the second.

Compared with `O=C(NCCCN1CCOCC1)c1ccc2nccnc2c1` [CBK268704], `Cc1nc2ccc(C(=O)NC(C)(C)CN3CCCC(C)C3)cc2[nH]1` (stereo not shown) [CBK282629] is lower in viability at 28.5 h, 10 µM: 114% for the first, 85.3% for the second.

Going from `Cc1ccc(CN2CC[C@@H]3[C@H](C2)[C@@H](c2ccsc2)CN3C(=O)c2ccccc2F)cc1` [CBK285658] to `CN1CCCC(NC(=O)C2CCN(Cc3ccc(F)cc3)CC2)C1` (stereo not shown) [CBK282516], the viability at 28.5 h, 10 µM rises from 96.5% to 119%.

Going from `CC(C)NC(=O)NC[C@H]1C[C@@H]2CCN1C[C@@H]2c1cc(-c2cccs2)nn1C` [CBK289103] to `COc1cc(NC(=O)N2CCCCC2CO)cc(OC)c1OC` (stereo not shown) [CBK155986], the viability at 28.5 h, 10 µM rises from 90% to 92%.

First: C(#Cc1ccc(-c2cc[nH]n2)s1)c1ccccc1 [CBK023413]
Second: O=C(CSc1ccc2nnc(-c3ccccc3)n2n1)Nc1nccs1 [CBK287516]
The viability at 28.5 h, 10 µM of the first is higher: 118% for the first, 98.6% for the second.

First: COC(=O)Cn1c(C(C)(C)C)cn2c3c(=O)n(C)c(=O)n(C)c3nc12 [CBK307555]
Second: Cc1cc(C)n(C)c(=O)c1C(=O)NC(C)Cc1ccccn1 (stereo not shown) [CBK283063]
The viability at 28.5 h, 10 µM of the first is lower: 84.3% for the first, 105% for the second.

`Cc1csc(N2CCC(NC3COc4ccc(F)cc4C3)CC2)n1` (stereo not shown) [CBK304751] and `CCOC(=O)C1CCN(c2cccc(F)c2C#N)CC1` [CBK304558] are the same in viability at 28.5 h, 10 µM: 101% for the first, 101% for the second.

First: COC(=O)c1cc(C)nc2sc(C)c(N)c12 [CBK115343]
Second: CSc1cccc(NC(=O)c2sc3nc(C)cc(C)c3c2N)c1 [CBK115349]
The viability at 28.5 h, 10 µM of the first is lower: 85.8% for the first, 94.7% for the second.

Going from `Nc1nc(-c2ccc(F)cc2)c2c(n1)-c1ccccc1C2=O` [CBK287881] to `COc1ccc(CNC(=O)c2cnc(-c3ccc(F)cc3)c(-c3ccc(C(C)=O)s3)c2)cc1` [CBK036577], the viability at 28.5 h, 10 µM falls from 114% to 90.7%.

Going from `Cc1ccc(OCC(=O)Nc2cccc3nsnc23)c(C)c1` [CBK263816] to `O=C(COc1ccc2c(c1)OCO2)Nc1ccccn1` [CBK288148], the viability at 28.5 h, 10 µM falls from 102% to 86.6%.

Going from `CC(=O)Nc1ccc(Nc2nc(-c3ccc(O)cc3)cn3ccnc23)cc1` [CBK037992] to `Cc1ccc(S(=O)(=O)Cc2ccc(C(=O)Nc3cccc(-c4cnc5ccccc5n4)c3)cc2)cc1` [CBK268589], the viability at 28.5 h, 10 µM falls from 94.8% to 89.3%.

First: COc1ccc2[nH]c3c(c2c1)CCN(C(=O)CNCC(=O)O)C31CCN(CCOc2ccccc2)C1 (stereo not shown) [CBK082782T]
Second: O=C(COc1cccnc1)N1CCCc2ccccc21 [CBK200258]
The viability at 28.5 h, 10 µM of the first is higher: 114% for the first, 92.5% for the second.

Going from `O=C(O)c1ccc(N(Cc2ccccc2)S(=O)(=O)c2ccccc2)cc1` [CBK265375N] to `O=C(CN(c1ccccc1)S(=O)(=O)c1ccccc1[N+](=O)[O-])NC1CCCCC1` [CBK262328], the viability at 28.5 h, 10 µM falls from 92.8% to 89.3%.

First: O=S(=O)(NCC1CCCO1)c1cccs1 (stereo not shown) [CBK044263]
Second: CCOC(=O)N1CCC(NS(=O)(=O)c2cc(Br)c(Cl)s2)CC1 [CBK045472]
The viability at 28.5 h, 10 µM of the first is higher: 103% for the first, 95.8% for the second.

First: FC(F)(F)C1=NC(C(F)(F)F)=NP(N2CCOCC2)(N2CCOCC2)=N1 [CBK261042]
Second: N#Cc1cccc(-n2cc(-c3ccc(C(F)(F)F)cc3)nn2)c1 [CBK112957]
The viability at 28.5 h, 10 µM of the first is higher: 94.3% for the first, 88.1% for the second.

First: Oc1ccc(-n2cc(-c3ccsc3)nn2)cc1 [CBK113093]
Second: Cc1csc2ncc(C(=O)NCc3ccccc3)c(=O)n12 [CBK287290]
The viability at 28.5 h, 10 µM of the first is lower: 84.6% for the first, 89.3% for the second.

Compared with `O=C(COc1ccc(Cl)cc1Br)N1CCCCCC1` [CBK058661], `C[C@H]1[C@@H]2[C@@H](O)C([C@H](C)C(=O)NCc3ccccn3)CC[C@@]2(C)CC[C@@H]1NC(=O)C1CC1` (stereo partly shown) [CBK289445] is higher in viability at 28.5 h, 10 µM: 82.8% for the first, 97.2% for the second.

Compared with `CCCOc1ccc(C(N)CC(=O)O)cc1` (stereo not shown) [CBK261360], `CC(C)OC(=O)C(NC(=O)OC(C)(C)C)c1ccccc1` (stereo not shown) [CBK170399] is lower in viability at 28.5 h, 10 µM: 93.5% for the first, 90.4% for the second.

Compared with `COc1ccc(-c2nc(NC(=O)CSc3n[nH]c(N)n3)ns2)cc1` [CBK267236], `COc1ccc(-c2cc(C(=O)NCc3ccc4c(c3)OCO4)cnc2-c2ccccc2)cn1` [CBK037571] is higher in viability at 28.5 h, 10 µM: 81.8% for the first, 97.9% for the second.

Compared with `COc1ccccc1Oc1ccc(C(F)(F)F)cc1[N+](=O)[O-]` [CBK002845], `NS(=O)(=O)c1ccc(Nc2ncccc2[N+](=O)[O-])cc1` [CBK261724] is lower in viability at 28.5 h, 10 µM: 99% for the first, 91.6% for the second.

Going from `CN(Cc1ccccc1)C(=O)[C@H]1C[C@@H](O)[C@H](O)[C@@H]2N=C(Nc3ccc(Cl)cc3)S[C@@H]21` [CBK288949] to `COCCNc1nccnc1-c1cccs1` [CBK036739], the viability at 28.5 h, 10 µM falls from 105% to 100%.
